The values below come from ChEMBL document CHEMBL5052856, “Inhibitors of apol1 and methods of using same” (2021).

Where only a bound is given, the exact number is not on record here.

This assay addresses Apolipoprotein L1 (Homo sapiens, UniProt O14791). As to the kind of experiment: Inhibition of APOL1 G1 variant in human HEK293-T-REx cells measured by Thallium assay. The format is cell-based.

Molecule `CC1(NC(=O)NC[C@H]2C[C@H](c3c(-c4ccc(F)cc4)[nH]c4c(F)cc(F)cc43)C2)CCNC1=O` (some centres undefined) returned an IC50 greater than 1000 nM.
`C[C@H](O)CNC(=O)N(C)CC1CC(c2c(-c3ccc(F)cc3)[nH]c3c(F)cc(F)cc23)C1` (some centres undefined): the IC50 was greater than 1000 nM.
Consider `C[C@H](CO)NC(=O)C1CCC(c2c(-c3ccc(F)cc3)[nH]c3c(F)cc(F)cc23)C1` (some centres undefined), for which the IC50 is greater than 1000 nM.
With `CN(CC1CC(c2c(-c3ccc(F)cc3)[nH]c3c(F)cc(F)cc23)C1)C(=O)NCCO` (centres undefined) the figure was greater than 1000 nM; with `C[C@@H](O)CNC(=O)NC[C@H]1C[C@H](c2c(-c3ccc(F)cc3)[nH]c3c(F)cc(F)cc32)C1`, greater than 1000 nM; with `O=C(NC[C@H]1C[C@H](c2c(-c3ccc(F)cc3)[nH]c3c(F)cc(F)cc32)C1)N[C@H]1CC[C@H](O)C1`, greater than 1000 nM.
In the case of `O=C(N[C@H](CO)C(F)(F)F)O[C@H]1C[C@H](c2c(-c3ccc(F)cc3)[nH]c3c(F)cc(F)cc32)C1`, the IC50 is greater than 1000 nM.
`NC(=O)C(CO)NC(=O)[C@H]1C[C@@H](c2c(-c3ccc(F)cc3)[nH]c3c(F)cc(F)cc32)C1` (some centres undefined) registered an IC50 greater than 1000 nM.
For the molecule `O=C(NCC1CCOC1)C1CC(Cc2c(-c3ccc(F)cc3)[nH]c3c(F)cc(F)cc23)C1` (centres undefined), the IC50 was greater than 1000 nM.
With `CNC(=O)CN[C@H]1C[C@H](c2c(-c3ccc(F)cc3)[nH]c3c(F)cc(F)cc32)C1` the figure was 0.25 nM; with `CC(C)(CO)NC(=O)O[C@H]1C[C@H](c2c(-c3ccc(F)cc3)[nH]c3c(F)cc(F)cc32)C1`, 0.25 nM.
As for `O=C(NCc1ccoc1)C1CC(Cc2c(-c3ccc(F)cc3)[nH]c3c(F)cc(F)cc23)C1` (centres undefined), the figure is greater than 1000 nM.
For the molecule `CC(C)NC(=O)CNC[C@H]1C[C@H](c2c(-c3ccc(F)cc3)[nH]c3c(F)cc(F)cc32)C1`, the IC50 was greater than 1000 nM.
Consider `CC(O)(CO)CNC(=O)O[C@H]1C[C@H](c2c(-c3ccc(F)cc3)[nH]c3c(F)cc(F)cc32)C1` (some centres undefined), for which the IC50 is greater than 1000 nM.
With `COCCNC(=O)[C@H]1C[C@@H](c2c(-c3ccc(F)cc3)[nH]c3c(F)cc(F)cc32)C1` the figure was greater than 1000 nM; with `O=C(NC[C@H](O)C(F)(F)F)NC[C@H]1C[C@H](c2c(-c3ccc(F)cc3)[nH]c3c(F)cc(F)cc32)C1`, greater than 1000 nM; with `CNC(=O)C(C)NCC1CC(c2c(-c3ccc(F)cc3)[nH]c3c(F)cc(F)cc23)C1` (centres undefined), 0.25 nM.
With `C[C@H](CO)NC(=O)NC[C@H]1C[C@H](c2c(-c3ccc(F)cc3)[nH]c3c(F)cc(F)cc32)C1` the figure was greater than 1000 nM; with `CN(CC1CC(c2c(-c3ccc(F)cc3)[nH]c3c(F)cc(F)cc23)C1)C(=O)NCc1cn(C)cn1` (centres undefined), greater than 1000 nM; with `O=C1NCCC1NC(=O)[C@H]1C[C@@H](c2c(-c3ccc(F)cc3)[nH]c3c(F)cc(F)cc32)C1` (some centres undefined), greater than 1000 nM.
With `C[C@H](CO)NC(=O)CNC(=O)[C@H]1C[C@H](c2c(-c3ccc(F)cc3)[nH]c3c(F)cc(F)cc32)C1` the figure was greater than 1000 nM; with `CC(CO)(CO)NC(=O)[C@H]1C[C@@H](c2c(-c3ccc(F)cc3)[nH]c3c(F)cc(F)cc32)C1`, 0.25 nM; with `C[C@H](O)[C@H](CO)NC(=O)O[C@H]1C[C@H](c2c(-c3ccc(F)cc3)[nH]c3c(F)cc(F)cc32)C1`, greater than 1000 nM.
`COCC(C)NC(=O)O[C@H]1C[C@H](c2c(-c3ccc(F)cc3)[nH]c3c(F)cc(F)cc32)C1` (some centres undefined): inhibition was half-maximal at 0.25 nM (IC50).
As for `O=C(NCCn1cccc1)[C@H]1C[C@@H](c2c(-c3ccc(F)cc3)[nH]c3c(F)cc(F)cc32)C1`, the IC50 was greater than 1000 nM.
As for `C[C@@H](CO)NC(=O)N[C@H]1C[C@H](c2c(-c3ccc(F)cc3)[nH]c3c(F)cc(F)cc32)C1`, the figure is 0.25 nM.
On to `Cn1cnc(CNC(=O)O[C@H]2C[C@H](c3c(-c4ccc(F)cc4)[nH]c4c(F)cc(F)cc43)C2)c1`, for which the IC50 is greater than 1000 nM.
As for `C[C@H](CO)NC(=O)CC1CC(c2c(-c3ccc(F)cc3)[nH]c3c(F)cc(F)cc23)C1` (some centres undefined), the figure is greater than 1000 nM.
As for `Cn1cncc1CNC(=O)C1CC(Cc2c(-c3ccc(F)cc3)[nH]c3c(F)cc(F)cc23)C1` (centres undefined), the figure is greater than 1000 nM; as for `O=C(NCC1CC(F)(F)C1)[C@H]1C[C@@H](c2c(-c3ccc(F)cc3)[nH]c3c(F)cc(F)cc32)C1`, greater than 1000 nM.
For `O=C(NCCO)O[C@H]1C[C@H](c2c(-c3ccc(F)cc3)[nH]c3c(F)cc(F)cc32)C1`, the IC50 was found to be 0.25 nM.
As for `O=C(NCCO)[C@H]1C[C@@H](c2c(-c3ccc(F)cc3)[nH]c3c(F)cc(F)cc32)C1`, the figure is 0.25 nM; as for `CC1(O)CC(NC(=O)C2CC(Cc3c(-c4ccc(F)cc4)[nH]c4c(F)cc(F)cc34)C2)C1` (centres undefined), greater than 1000 nM; as for `O=C(NC[C@H]1C[C@H](c2c(-c3ccc(F)cc3)[nH]c3c(F)cc(F)cc32)C1)NC1(CO)CCOC1` (some centres undefined), greater than 1000 nM.
As for `CC(C)(O)CNC(=O)NC[C@H]1C[C@H](c2c(-c3ccc(F)cc3)[nH]c3c(F)cc(F)cc32)C1`, the figure is greater than 1000 nM; as for `O=C(CN[C@H]1C[C@H](c2c(-c3ccc(F)cc3)[nH]c3c(F)cc(F)cc32)C1)NC1CC1`, greater than 1000 nM; as for `O=C(NCc1ccc[nH]c1=O)C1CC(Cc2c(-c3ccc(F)cc3)[nH]c3c(F)cc(F)cc23)C1` (centres undefined), greater than 1000 nM.
For the molecule `O=C(NC(CO)(CO)CO)O[C@H]1C[C@H](c2c(-c3ccc(F)cc3)[nH]c3c(F)cc(F)cc32)C1`, the IC50 is less than 250 nM.
With `CN(CC1CC(c2c(-c3ccc(F)cc3)[nH]c3c(F)cc(F)cc23)C1)C(=O)N1CCC1` (centres undefined) the figure was greater than 1000 nM; with `O=C(NCC(F)F)N1CC(c2c(-c3ccc(F)cc3)[nH]c3c(F)cc(F)cc23)C1`, 0.25 nM; with `O=C(NCc1ncc[nH]1)C1CC(Cc2c(-c3ccc(F)cc3)[nH]c3c(F)cc(F)cc23)C1` (centres undefined), greater than 1000 nM.
As for `O=C(NCc1cn(CC(F)(F)F)cn1)O[C@H]1C[C@H](c2c(-c3ccc(F)cc3)[nH]c3c(F)cc(F)cc32)C1`, the figure is greater than 1000 nM; as for `C[C@@H](O)CNC(=O)O[C@H]1C[C@H](c2c(-c3ccc(F)cc3)[nH]c3c(F)cc(F)cc32)C1`, greater than 1000 nM.
With `O=C(NCCO)C1CC(Cc2c(-c3ccc(F)cc3)[nH]c3c(F)cc(F)cc23)C1` (centres undefined) the figure was 0.25 nM.
`O=C(NCC(F)F)[C@H]1C[C@@H](c2c(-c3ccc(F)cc3)[nH]c3c(F)cc(F)cc32)C1` displayed an IC50 of 0.25 nM.
`O=C(NC1(CO)CC1)C1(F)CC(c2c(-c3ccc(F)cc3)[nH]c3c(F)cc(F)cc23)C1` (centres undefined): the IC50 is less than 250 nM.
Molecule `NC(=O)C(CO)NCC1CC(c2c(-c3ccc(F)cc3)[nH]c3c(F)cc(F)cc23)C1` (centres undefined) registered an IC50 of 0.25 nM.
As to `C[C@H](O)CNC(=O)O[C@H]1C[C@H](c2c(-c3ccc(F)cc3)[nH]c3c(F)cc(F)cc32)C1`, the IC50 is greater than 1000 nM.
As for `CC1(NC(=O)C2CC(Cc3c(-c4ccc(F)cc4)[nH]c4c(F)cc(F)cc34)C2)CCOC1` (centres undefined), the figure is greater than 1000 nM.
Molecule `CC(CO)NC(=O)[C@H]1C[C@@H](c2c(-c3ccc(F)cc3)[nH]c3c(F)cc(F)cc32)C1` (some centres undefined) had an IC50 greater than 1000 nM.
As for `O=C(NCC1CC(F)(F)C1)C1CC(Cc2c(-c3ccc(F)cc3)[nH]c3c(F)cc(F)cc23)C1` (centres undefined), the figure is greater than 1000 nM.
As for `COCCNC(=O)CC1CC(c2c(-c3ccc(F)cc3)[nH]c3c(F)cc(F)cc23)C1` (centres undefined), the figure is greater than 1000 nM.
`O=C(NC1(CO)CC(F)(F)C1)C1CC(Cc2c(-c3ccc(F)cc3)[nH]c3c(F)cc(F)cc23)C1` (centres undefined) registered a half-maximal inhibitory concentration (IC50) greater than 1000 nM.
As for `CC1(C(=O)N[C@H]2CCNC2=O)CC(c2c(-c3ccc(F)cc3)[nH]c3c(F)cc(F)cc23)C1` (some centres undefined), the figure is 0.25 nM; as for `CC(O)[C@H](CO)NC(=O)[C@H]1C[C@@H](c2c(-c3ccc(F)cc3)[nH]c3c(F)cc(F)cc32)C1` (some centres undefined), greater than 1000 nM; as for `O=C(NC(CO)(CO)CO)[C@H]1C[C@@H](c2c(-c3ccc(F)cc3)[nH]c3c(F)cc(F)cc32)C1`, 0.25 nM.
With `Cn1cnc(CNC(=O)C2(F)CC(c3c(-c4ccc(F)cc4)[nH]c4c(F)cc(F)cc34)C2)c1` (centres undefined) the figure was less than 250 nM; with `CC(NC(=O)C1CC(Cc2c(-c3ccc(F)cc3)[nH]c3c(F)cc(F)cc23)C1)C1CCOC1` (centres undefined), greater than 1000 nM.
The molecule `O=C(NCC1CCNC1=O)NC[C@H]1C[C@H](c2c(-c3ccc(F)cc3)[nH]c3c(F)cc(F)cc32)C1` (some centres undefined) registered an IC50 greater than 1000 nM.
With `CNC(=O)NC[C@H]1C[C@H](c2c(-c3ccc(F)cc3)[nH]c3c(F)cc(F)cc32)C1` the figure was 0.25 nM; with `O=C(NCc1cnco1)C1CC(Cc2c(-c3ccc(F)cc3)[nH]c3c(F)cc(F)cc23)C1` (centres undefined), greater than 1000 nM.
In turn, `O=C(CC1CC(c2c(-c3ccc(F)cc3)[nH]c3c(F)cc(F)cc23)C1)N[C@@H]1CCNC1=O` (some centres undefined) displayed an IC50 greater than 1000 nM.
As for `NC(=O)CN[C@H]1C[C@H](c2c(-c3ccc(F)cc3)[nH]c3c(F)cc(F)cc32)C1`, the figure is greater than 1000 nM; as for `O=C(NC(CO)(CO)CO)[C@H]1C[C@H](c2c(-c3ccc(F)cc3)[nH]c3c(F)cc(F)cc32)C1`, less than 250 nM; as for `Cc1cc(CNC(=O)C2CC(Cc3c(-c4ccc(F)cc4)[nH]c4c(F)cc(F)cc34)C2)nn1C` (centres undefined), greater than 1000 nM.
As for `CC(O)(CO)CNC(=O)C1CC(Cc2c(-c3ccc(F)cc3)[nH]c3c(F)cc(F)cc23)C1` (centres undefined), the figure is greater than 1000 nM; as for `O=C(N[C@H]1CCOC1=O)C1CC(Cc2c(-c3ccc(F)cc3)[nH]c3c(F)cc(F)cc23)C1` (some centres undefined), greater than 1000 nM.
As for `C[C@@H](O)[C@@H](CO)NC(=O)O[C@H]1C[C@H](c2c(-c3ccc(F)cc3)[nH]c3c(F)cc(F)cc32)C1`, the figure is greater than 1000 nM; as for `C[C@H](O)[C@H](CO)NC(=O)[C@H]1C[C@@H](c2c(-c3ccc(F)cc3)[nH]c3c(F)cc(F)cc32)C1`, greater than 1000 nM; as for `CC[C@H](CO)NC(=O)NC[C@H]1C[C@H](c2c(-c3ccc(F)cc3)[nH]c3c(F)cc(F)cc32)C1`, greater than 1000 nM.
Regarding `O=C(NCC(O)C(F)F)C1CC(Cc2c(-c3ccc(F)cc3)[nH]c3c(F)cc(F)cc23)C1` (centres undefined), the IC50 is greater than 1000 nM.
As for `O=C(NCC1COC1)[C@H]1C[C@@H](c2c(-c3ccc(F)cc3)[nH]c3c(F)cc(F)cc32)C1`, the figure is greater than 1000 nM; as for `Cn1cnc(CNC(=O)[C@H]2C[C@@H](c3c(-c4ccc(F)cc4)[nH]c4c(F)cc(F)cc43)C2)c1`, greater than 1000 nM; as for `O=C(NCc1cnco1)O[C@H]1C[C@H](c2c(-c3ccc(F)cc3)[nH]c3c(F)cc(F)cc32)C1`, 0.25 nM.

The term IC50 denotes the concentration needed to halve the response being measured.
